According to patent US10597388B2, “Pyridazinone herbicides” (FMC CORPORATION, priority 2014, dated 2020):

Legend:
Format in all cases: in vivo
[1] = tested on: barnyardgrass (Echinochloa crus-galli); assay: Test A greenhouse herbicide test, pre- and postemergence
Summary of the method: (§1)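 Visual injury ratings, 0 (no effect) to 100 (complete control), versus untreated plants after roughly 10 d in a greenhouse. Compounds, formulated in a surfactant-containing non-phytotoxic solvent, were sprayed on loam–sand soil after sowing (pre) or on one- to two-leaf plants 2–10 cm tall (post).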

[2] = tested on: corn (Zea mays); assay: as above; conditions: Postemergence; for Plant response rating, Corn: 125 g ai/ha, 0 to 100 scale where 0 is no effect and 100 is complete control; for Corn plant response rating: 500 g ai/ha, 0 to 100 scale, 0 is no effect, 100 is complete control
Summary of the method: as §1

[3] = tested on: foxtail, giant (giant foxtail, Setaria faberii); assay: as above
Summary of the method: as §1

[4] = tested on: kochia (Kochia scoparia); assay: as above
Summary of the method: as §1

[5] = tested on: pigweed (Amaranthus retroflexus); assay: as above
Summary of the method: as §1

[6] = tested on: ragweed (common ragweed, Ambrosia elatior); assay: as above
Summary of the method: as §1

[7] = tested on: ryegrass, Italian (Italian ryegrass, Lolium multiflorum); assay: as above
Summary of the method: as §1

[8] = tested on: wheat (Triticum aestivum); assay: as above; conditions: Postemergence; for Plant response rating, Wheat: 125 g ai/ha, 0 to 100 scale where 0 is no effect and 100 is complete control; for Wheat plant response rating: 500 g ai/ha, 0 to 100 scale, 0 is no effect, 100 is complete control
Summary of the method: as §1

[9] = tested on: soybean (Glycine max); assay: Test E greenhouse herbicide test, pre- and postemergence
Source text: Seeds of plant species selected from corn (Zea mays), soybean (Glycine max), velvetleaf (Abutilon theophrasti), lambsquarters (Chenopodium album), wild poinsettia (Euphorbia heterophylla), pigweed, palmer (palmer pigweed, Amaranthus palmeri), waterhemp (common waterhemp, Amaranthus rudis), surinam grass (Brachiaria decumbens), crabgrass, large (large crabgrass, Digitaria sanguinalis), crabgrass, Brazilian (Brazilian crabgrass, Digitaria horizontalis), panicum, fall (fall panicum, Panicum dichotomiflorum), foxtail, giant (giant foxtail, Setaria faberii), foxtail, green (green foxtail, Setaria viridis), goosegrass (Eleusine indica), johnsongrass (Sorghum halepense), ragweed (common ragweed, Ambrosia elatior), barnyardgrass (Echinochloa crus-galli), sandbur (southem sandbur, Cenchrus echinatus), arrowleaf sida (Sida rhombifolia), Italian ryegrass (Lolium multiflorum), dayflower (Virginia (VA) dayflower, Commelina virginica), field bindweed (Convolvulus arvensis), momingglory (Ipomoea coccinea), nightshade (eastern black nightshade, Solanum ptycanthum), kochia (Kochia scoparia), nutsedge, yellow (yellow nutsedge, Cyperus esculentus), horseweed (Conyza canadensis), and beggarticks (hairy beggarticks, Bidens pilosa), were planted into a silt loam soil and treated preemergence with test chemicals formulated in a non-phytotoxic solvent mixture which included a surfactant.
At the same time, plants from these crop and weed species and also waterhemp_RES1, (ALS & Triazine resistant common waterhemp, Amaranthus rudis), and waterhemp_RES2, (ALS & HPPD resistant common waterhemp, Amaranthus rudis) were planted in pots containing Redi-Earth® planting medium (Scotts Company, 14111 Scottslawn Road, Marysville, Ohio 43041) comprising spaghnum peat moss, vermiculite, wetting agent and starter nutrients were treated with postemergence applications of test chemicals formulated in the same manner. Plants ranged in height from 2 to 18 cm for postemergence treatments (1- to 4-leaf stage). Treated plants and controls were maintained in a greenhouse for 14 to 21 d, after which time all species were compared to controls and visually evaluated. Plant response ratings, summarized in Table E, are based on a scale of 0 to 100 where 0 is no effect and 100 is complete control. A dash (-) response means no test result.

[10] = Postemergence, 125 g ai/ha, 0 to 100 scale where 0 is no effect and 100 is complete control
[11] = Postemergence, 500 g ai/ha, 0 to 100 scale, 0 is no effect, 100 is complete control
[12] = Preemergence, 125 g ai/ha, 0 to 100 scale where 0 is no effect and 100 is complete control
[13] = Preemergence, 500 g ai/ha, 0 to 100 scale, 0 no effect, 100 complete control
[14] = 62 g ai/ha, Postemergence, scale 0 to 100 (0 no effect, 100 complete control)
[15] = 62 g ai/ha, Preemergence, scale 0 to 100 (0 no effect, 100 complete control)
[16] = 125 g ai/ha, Postemergence, scale 0 to 100 (0 no effect, 100 complete control)
[17] = 125 g ai/ha, Preemergence, scale 0 to 100 (0 no effect, 100 complete control)
[18] = 250 g ai/ha, Postemergence, scale 0 to 100 (0 no effect, 100 complete control)
[19] = Postemergence, 31 g ai/ha, visual, scale 0 no effect to 100 complete control
[20] = Preemergence, 31 g ai/ha, scale 0 to 100, 0 no effect, 100 complete control
[21] = Preemergence, 250 g ai/ha, visual, scale 0 no effect to 100 complete control

Compound: Cc1nn(C)c(=O)c(-c2ccc(F)c3ccccc23)c1O [Compound 41]
- Plant response rating, Barnyardgrass [1, 10]: 30
- Barnyardgrass plant response rating [1, 11]: 90
- Barnyardgrass plant response rating [1, 12]: 20
- Plant response rating, Barnyardgrass [1, 13]: 90
- Plant response rating, Corn [2]: 20
- Corn plant response rating [2]: 70
- Plant response rating, Foxtail, Giant [3, 10]: 70
- Foxtail, Giant plant response rating [3, 11]: 100
- Foxtail, Giant plant response rating [3, 12]: 70
- Plant response rating, Foxtail, Giant [3, 13]: 90
- Plant response rating, Kochia [4, 10]: 100
- Kochia plant response rating [4, 11]: 100
- Kochia plant response rating [4, 12]: 90
- Plant response rating, Kochia [4, 13]: 100
- Plant response rating, Pigweed [5, 10]: 60
- Pigweed plant response rating [5, 11]: 90
- Pigweed plant response rating [5, 12]: 100
- Plant response rating, Pigweed [5, 13]: 100
- Plant response rating, Ragweed [6, 10]: 70
- Ragweed plant response rating [6, 11]: 100
- Ragweed plant response rating [6, 12]: 80
- Plant response rating, Ragweed [6, 13]: 90
- Plant response rating, Ryegrass, Italian [7, 10]: 100
- Ryegrass, Italian plant response rating [7, 11]: 100
- Ryegrass, Italian plant response rating [7, 12]: 100
- Plant response rating, Ryegrass, Italian [7, 13]: 100
- Plant response rating, Wheat [8]: 0
- Wheat plant response rating [8]: 80
- Plant response rating, Soybean [9, 14]: 40
- Plant response rating, Soybean [9, 15]: 35
- Plant response rating, Soybean [9, 16]: 60
- Plant response rating, Soybean [9, 17]: 20
- Plant response rating, Soybean [9, 18]: 75
- Plant response rating, Soybean [9, 19]: 30
- Plant response rating, Soybean [9, 20]: 0
- Plant response rating, Soybean [9, 21]: 65

Compound: CCc1sc2ccc(C)cc2c1-c1c(O)c(C)nn(C)c1=O [Compound 47]
- Plant response rating, Barnyardgrass [1, 10]: 40
- Barnyardgrass plant response rating [1, 11]: 80
- Barnyardgrass plant response rating [1, 12]: 70
- Plant response rating, Barnyardgrass [1, 13]: 90
- Plant response rating, Corn [2]: 0
- Corn plant response rating [2]: 10
- Plant response rating, Foxtail, Giant [3, 10]: 80
- Foxtail, Giant plant response rating [3, 11]: 80
- Foxtail, Giant plant response rating [3, 12]: 70
- Plant response rating, Foxtail, Giant [3, 13]: 80
- Plant response rating, Kochia [4, 10]: 90
- Kochia plant response rating [4, 11]: 90
- Kochia plant response rating [4, 12]: 10
- Plant response rating, Kochia [4, 13]: 90
- Plant response rating, Pigweed [5, 10]: 100
- Pigweed plant response rating [5, 11]: 100
- Pigweed plant response rating [5, 12]: 70
- Plant response rating, Pigweed [5, 13]: 100
- Plant response rating, Ragweed [6, 10]: 100
- Ragweed plant response rating [6, 11]: 100
- Ragweed plant response rating [6, 12]: 80
- Plant response rating, Ragweed [6, 13]: 90
- Plant response rating, Ryegrass, Italian [7, 10]: 70
- Ryegrass, Italian plant response rating [7, 11]: 80
- Ryegrass, Italian plant response rating [7, 12]: 60
- Plant response rating, Ryegrass, Italian [7, 13]: 90
- Plant response rating, Wheat [8]: 0
- Wheat plant response rating [8]: 0
- Plant response rating, Soybean [9, 14]: 25
- Plant response rating, Soybean [9, 15]: 0
- Plant response rating, Soybean [9, 16]: 20
- Plant response rating, Soybean [9, 17]: 0
- Plant response rating, Soybean [9, 18]: 30
- Plant response rating, Soybean [9, 19]: 20
- Plant response rating, Soybean [9, 20]: 0
- Plant response rating, Soybean [9, 21]: 40

Compound: CCc1sc2c(C)cc(C)cc2c1-c1c(O)c(C)nn(C)c1=O [Compound 57]
- Plant response rating, Barnyardgrass [1, 10]: 90
- Barnyardgrass plant response rating [1, 11]: 100
- Barnyardgrass plant response rating [1, 12]: 100
- Plant response rating, Barnyardgrass [1, 13]: 100
- Plant response rating, Corn [2]: 20
- Corn plant response rating [2]: 30
- Plant response rating, Foxtail, Giant [3, 10]: 80
- Foxtail, Giant plant response rating [3, 11]: 90
- Foxtail, Giant plant response rating [3, 12]: 100
- Plant response rating, Foxtail, Giant [3, 13]: 100
- Plant response rating, Kochia [4, 10]: 80
- Kochia plant response rating [4, 11]: 100
- Kochia plant response rating [4, 12]: 100
- Plant response rating, Kochia [4, 13]: 100
- Plant response rating, Pigweed [5, 10]: 100
- Pigweed plant response rating [5, 11]: 100
- Pigweed plant response rating [5, 12]: 100
- Plant response rating, Pigweed [5, 13]: 100
- Plant response rating, Ragweed [6, 10]: 100
- Ragweed plant response rating [6, 11]: 100
- Ragweed plant response rating [6, 12]: 90
- Plant response rating, Ragweed [6, 13]: 100
- Plant response rating, Ryegrass, Italian [7, 10]: 70
- Ryegrass, Italian plant response rating [7, 11]: 90
- Ryegrass, Italian plant response rating [7, 12]: 90
- Plant response rating, Ryegrass, Italian [7, 13]: 100
- Plant response rating, Wheat [8]: 0
- Wheat plant response rating [8]: 10
- Plant response rating, Soybean [9, 14]: 0
- Plant response rating, Soybean [9, 15]: 0
- Plant response rating, Soybean [9, 16]: 15
- Plant response rating, Soybean [9, 17]: 0
- Plant response rating, Soybean [9, 18]: 10
- Plant response rating, Soybean [9, 19]: 10
- Plant response rating, Soybean [9, 20]: 0
- Plant response rating, Soybean [9, 21]: 20

Compound: Cc1ccc2sc(C)c(-c3c(OC(=O)OC(C)C)c(C)nn(C)c3=O)c2c1 [Compound 66]
- Plant response rating, Barnyardgrass [1, 10]: 20
- Barnyardgrass plant response rating [1, 11]: 90
- Barnyardgrass plant response rating [1, 12]: 20
- Plant response rating, Barnyardgrass [1, 13]: 70
- Plant response rating, Corn [2]: 0
- Corn plant response rating [2]: 0
- Plant response rating, Foxtail, Giant [3, 10]: 70
- Foxtail, Giant plant response rating [3, 11]: 90
- Foxtail, Giant plant response rating [3, 12]: 60
- Plant response rating, Foxtail, Giant [3, 13]: 90
- Plant response rating, Kochia [4, 10]: 90
- Kochia plant response rating [4, 11]: 90
- Kochia plant response rating [4, 12]: 60
- Plant response rating, Kochia [4, 13]: 70
- Plant response rating, Pigweed [5, 10]: 80
- Pigweed plant response rating [5, 11]: 90
- Pigweed plant response rating [5, 12]: 100
- Plant response rating, Pigweed [5, 13]: 100
- Plant response rating, Ragweed [6, 10]: 70
- Ragweed plant response rating [6, 11]: 90
- Ragweed plant response rating [6, 12]: 80
- Plant response rating, Ragweed [6, 13]: 90
- Plant response rating, Ryegrass, Italian [7, 10]: 90
- Ryegrass, Italian plant response rating [7, 11]: 100
- Ryegrass, Italian plant response rating [7, 12]: 90
- Plant response rating, Ryegrass, Italian [7, 13]: 100
- Plant response rating, Wheat [8]: 0
- Wheat plant response rating [8]: 0
- Plant response rating, Soybean [9, 14]: 20
- Plant response rating, Soybean [9, 15]: 0
- Plant response rating, Soybean [9, 16]: 20
- Plant response rating, Soybean [9, 17]: 0
- Plant response rating, Soybean ([9]; Postemergence, 16 g ai/ha, visual, scale 0 no effect to 100 complete control): 0
- Plant response rating, Soybean [9, 19]: 0
- Plant response rating, Soybean ([9]; Preemergence, 16 g ai/ha, scale 0 to 100, 0 no effect, 100 complete control): 0
- Plant response rating, Soybean [9, 20]: 0
